# Values of other authors as cited in US20060013862A1, “Onychomycosis: a new process for cure” (priority 2004, published 2006).
# System: onychomycosis
# [1] = itraconazole vs terbinafine-treated patients
structure (smiles),measurement,setting,value
CN(C/C=C/C#CC(C)(C)C)Cc1cccc2ccccc12 [terbinafine],Mycological relapse rate,[1],23%
same,clinical relapse rate,[1],21%
same,Mycological cure without second intervention treatment,share of treated subjects (34 of 74 terbinafine),46%
